The text below walks through data of PMC5764437, “Discovery of novel, orally bioavailable, antileishmanial compounds using phenotypic screening” (PLoS Neglected Tropical Diseases, 2017).

Values after ≈ are worked out from the molar mass of the structure shown. “Also recorded” adds a separate entry of the source.

For one series, the system named is J774A.1 macrophages. The series can be described thus: Cytotoxicity to J774A.1 macrophages (dose-response). In kind it is cell-based. To be noted: for EC50: Mus musculus, J774.A1, host macrophage, tested up to 10 μM, mean ± standard deviation, n = 2, read-out: J774A.1 EC50. The procedure:
Cytotoxicity of compounds to J774.A1 macrophages was determined by dose-response curves as described previously. In the absence of growth inhibitors or DMSO, the macrophages increased in number ~6-fold over 96 h in Minimum Essential Medium, employed for both macrophage infections and the toxicity assays.

For series [1], the system named is Trypanosoma cruzi CL Brener epimastigotes. The series can be described thus: Growth inhibition of Trypanosoma cruzi epimastigotes (SYBR Green). In kind it is cell-based. To be noted: 72 h, 10 μM to 1 nM. As to the method:
Trypanosoma cruzi CL Brener epimastigotes were obtained from Dr. Fred Buckner of the Department of Medicine at the University of Washington. T. cruzi epimastigotes were grown in liver infusion tryptose medium and seeded in a 96-well plate at 10^5 epimastigotes per well in 100 μl medium. For each well, 1 μl of compound in DMSO at 100X the desired final concentration was added. Epimastigotes were exposed to a range of compound concentrations from 10 μM to 1 nM to determine EC50. Plates were incubated at 26°C for 72 h, then 10 μl 50X SYBR Green in 1% Triton X-100 was added to each well followed by incubation with shaking at room temperature for 30 minutes. Fluorescence was read (excitation 485nm, emission 535nm) with the Victor^2 multiplate reader (PerkinElmer). All data processing and visualization were performed using GraphPad Prism 6 software.

The next series concerns Caco-2 cells. Kind of series: Caco-2 permeability assay. To be noted: predicted from solubility and membrane permeability. Format: in vitro ADME.
Series [2] is described as follows: Stability in simulated gastric fluid. To be noted: simulated gastric fluid with pepsin, pH 1. The procedure: Compound stocks were 10 mM in DMSO. The internal standard was 5 µM warfarin in methanol. […] 1 ml SGF was added to a 1.1 ml 96-well storage plate and mixed well with 10 µl compound stock. The plate was then incubated at 37 °C and shaken at 60 rpm. […] At each time point, 100 µl was removed to a 1 ml storage plate and 300 µl internal standard was added to quench the reaction. […] The compound was detected by SIR and quantification was based on peak area of test compound and the internal standard.

A further series relates to mouse plasma proteins. The series can be described thus: Mouse plasma protein binding assay (Rapid Equilibrium Dialysis). To be noted: across tested concentrations. In kind it is in vitro ADME. The procedure:
(§1) A Rapid Equilibrium Dialysis (RED) Plate (Thermo Scientific, catalog #, PI-90007) was used to determine the percentage of compound binding to mouse plasma proteins (Thermo Scientific, catalog #, 50642085). The positive control for this experiment was propranolol HCl (295.807 g/mol) and the internal standard was warfarin in methanol (2 μM). 10 mM stocks of compound in DMSO were diluted with DMSO and acetonitrile to three different intermediate concentrations: high (2 mM), medium (0.4 mM) and low (0.08 mM) concentration in DMSO:acetonitrile (1:4, v:v). 10 mM stock of propranolol in DMSO were diluted to 0.4 mM concentration in DMSO:acetonitrile (1:4 v:v).
(§2) In 10 Eppendorf tubes, the control (10 μL) or each of three compound dilutions (10 μL) were each added to separate aliquots of 990 μL mouse plasma. Potassium phosphate buffer (500 μL, 0.1 M, pH 7.4, 37 °C) was placed in every white well of the RED plate and each plasma/compound mixture was added to each of 3 RED wells (300 μL). The RED plate holds triplicate samples of one control (final concentration […]) and one compound (final concentrations: 20 μM, 4 μM, […]). The RED Plate was sealed and incubated at 37 °C shaking at 250 rpm for 4 hours. After incubation, aliquots (50 μL) from each well in the RED plate were transferred to an assay plate (pION Inc., MA, #110323). In order to create a uniform matrix in every well of the assay plate, plasma (50 μL) was added to each of the wells that already contained buffer and potassium phosphate buffer (50 μL) was added to each of the wells that already contained plasma/compound. Pre-cooled internal standard (300 μL) was added to the assay plate to quench the reaction. The quenched plate was then centrifuged (5810R, Eppendorf, Westbury, NY) at 3000 rpm for 20 minutes.
(§3) The percentage of free compound [1] and bound compound [2] was calculated usng the AUC ratio of compound to warfarin from the SIR spectra. For reporting data, % Free = Concentration buffer/Concentration plasma *100 %, and % Bound = 100% - % Free.

Test in series [3]: as above
To be noted: mouse, mouse plasma, pH 7.4; for fraction unbound at 4 h, 0.8 μM: Conc. 0.8 μM; for fraction unbound at 4 h, 4 μM: Conc. 4 μM; for fraction unbound at 4 h, 20 μM: Conc. 20 μM. Format: in vitro ADME. The procedure: as §1, §2, §3

Series [4] can be described thus: Solubility in aqueous buffer. In kind it is physicochemical. To be noted: citrate phosphate buffered saline, pH 7.4, aqueous buffer, kinetic from dmso stock. The procedure:
Solubility assays were carried out on a Biomek FX lab automation workstation (Beckman Coulter, Inc., Fullerton, CA) using μSOL Evolution software (pION Inc.). Compound stock (10 mM in DMSO, 10 μL) was added to 1-propanol (190 μL) to make a reference stock plate. Reference stock solution (5 μL) was mixed with 1-propanol (70 μL) and citrate phosphate buffered saline (pH 7, 75 μL) to make the reference plate which was then measured with UV detection. Test compound stock (10 mM, 6 μL) was added to citrate phosphate buffered saline (594 μL) in a 96-well storage plate and mixed. […] The suspension was then filtered through a 96-well filter plate (pION Inc.). Filtrate (75 μL) was mixed with 1-propanol (75 μL) to make the sample plate, and the UV spectrum (250 nm −500 nm) of the sample plate was recorded. Calculation of solubility was carried out using μSOL Evolution software based on the AUC of the UV spectrum of the sample plate and the reference plate. All compounds were tested in triplicate.

For a further series, the system named is L. mexicana. Kind of series: Efficacy in murine model of cutaneous leishmaniasis (footpad lesion size). To be noted: BALB/c mice infected with L. mexicana, measured weeks 4–12. In kind it is in vivo. The procedure: Female BALB/c mice (~20 g) were injected in one hind footpad with 1 x 10^6 stationary phase promastigotes suspended in 25 μl of phosphate buffered saline (PBS). Four weeks after infection, when a small cutaneous lesion was visible in the injected footpad, cohorts of five mice were treated with either compound or vehicle alone (90 μl), delivered daily for 10 consecutive days by oral gavage using a 20-gauge x 30 mm disposable plastic feeding needle. Vehicle consisted of 10/10/40/39 mixture of ethanol/(PG)/PEG400/PBS plus 1% (weight/volume) 2HβCD (PG is propylene glycol, PEG is polyethylene glycol, 2HβCD is 2-hydroxy-β-cyclodextran). The daily dose for each compound was: compound 4, 25 mg/kg; compound 5, 30 mg/kg; miltefosine, 20 mg/kg. The width of the footpad (top to bottom) was measured with calipers before injection of parasites (day 0) and weekly from weeks 4–12. The width of the uninfected contralateral footpad was also measured each week, and its width was subtracted from that of the infected footpad to determine lesion size.

A short description of series [5]: Dose-ranging tolerability / 10-day toxicity study in mice. In kind it is in vivo, mouse. To be noted: oral, 30 mg/kg.

As for `COc1ccc(-c2c(C(F)(F)F)oc3c(CN4CCN(C)CC4)c(O)ccc3c2=O)cc1OC` [Compound 4], the half-maximal effective concentration (EC50) (as a rule, the concentration that produces a half-maximal response) in the series on J774A.1 macrophages is > 10000 nM. Also, the “Reduction in viability / inhibition of host macrophage J774A.1 in dose-response studies” value in the series on J774A.1 macrophages (up to 10 μM) is reported as “no reduction in viability; also recorded: no inhibition of J774A.1 macrophages up to 10 μM concentration”. Besides, the “T. cruzi epimastigotes EC50” value in series [1] is reported as “no inhibition”. Besides, in the series on Caco-2 cells, the “Predicted absorption across the intestinal epithelium” value is on record as ~ 85%. For the same compound, the half-life (in general, the time in which the quantity being followed falls by half) at 99 µM in series [2] was > 48 h. The “Binding to mouse plasma proteins” value in the series on mouse plasma proteins is on record as < 50%. In addition, in series [3], the fraction unbound (as a rule, the share of the substance not bound to proteins or other matrix) at 4 h, 0.8 μM is 0.54; the fraction unbound at 4 h, 4 μM is 0.599; the fraction unbound at 4 h, 20 μM was 0.534. The solubility (commonly how much of the substance goes into solution per volume) at 18 h in series [4] is 67 µM (≈ 32.1 µg/mL). Also, the “Cutaneous lesion size (footpad width)” value in the series on L. mexicana (25 mg/kg daily oral gavage for 10 days from week 4) is given as “controlled lesion size at dimensions similar to that at the time of compound dosing (4 weeks) until week 9”.

Take `Cc1ccc(-c2nc3ccccc3s2)cc1NC(=O)c1cc([N+](=O)[O-])c(N2CCN(C)CC2)cc1Cl` [Compound 5]: the EC50 in the series on J774A.1 macrophages was 1100 ± 800 nM. Further, the concentration giving a half-maximal response (EC50) in series [1] (Trypanosoma cruzi, read-out: T. cruzi epimastigotes EC50) is 86 ± 30 nM. Also, the half-life at 99 µM in series [2] was > 24 h. In addition, the “Binding to mouse plasma proteins” value with mouse plasma proteins was < 50%. In series [3], this compound showed a fraction unbound at 4 h, 0.8 μM of 0.65; an unbound share (fraction unbound) at 4 h, 4 μM of 0.591; an unbound share (fraction unbound) at 4 h, 20 μM of 0.586. Further, the solubility at 18 h in series [4] was found to be 0.3 µM (≈ 0.157 µg/mL). In [5], the “Tolerability (weight loss, appetite, other toxicity)” value is “suppressed appetite was resolved by dose reduction to 30 mg/kg; also recorded: No weight loss or other toxicity was observed”. In addition, the “Cutaneous lesion size (footpad width)” value in the series on L. mexicana (30 mg/kg daily oral gavage for 10 days from week 4) is listed as “controlled lesion size at dimensions similar to that at the time of compound dosing (4 weeks) until week 9”.
